What was measured:
[1] = target: T1, Carnitine O-palmitoyltransferase 1, liver isoform (Homo sapiens) (UniProt P50416); assay: Increase in CPT1A activity in hepatocytes at 60 uM; assay type: cell-based; conditions: Hepatocyte
T1 sequence (whole entry): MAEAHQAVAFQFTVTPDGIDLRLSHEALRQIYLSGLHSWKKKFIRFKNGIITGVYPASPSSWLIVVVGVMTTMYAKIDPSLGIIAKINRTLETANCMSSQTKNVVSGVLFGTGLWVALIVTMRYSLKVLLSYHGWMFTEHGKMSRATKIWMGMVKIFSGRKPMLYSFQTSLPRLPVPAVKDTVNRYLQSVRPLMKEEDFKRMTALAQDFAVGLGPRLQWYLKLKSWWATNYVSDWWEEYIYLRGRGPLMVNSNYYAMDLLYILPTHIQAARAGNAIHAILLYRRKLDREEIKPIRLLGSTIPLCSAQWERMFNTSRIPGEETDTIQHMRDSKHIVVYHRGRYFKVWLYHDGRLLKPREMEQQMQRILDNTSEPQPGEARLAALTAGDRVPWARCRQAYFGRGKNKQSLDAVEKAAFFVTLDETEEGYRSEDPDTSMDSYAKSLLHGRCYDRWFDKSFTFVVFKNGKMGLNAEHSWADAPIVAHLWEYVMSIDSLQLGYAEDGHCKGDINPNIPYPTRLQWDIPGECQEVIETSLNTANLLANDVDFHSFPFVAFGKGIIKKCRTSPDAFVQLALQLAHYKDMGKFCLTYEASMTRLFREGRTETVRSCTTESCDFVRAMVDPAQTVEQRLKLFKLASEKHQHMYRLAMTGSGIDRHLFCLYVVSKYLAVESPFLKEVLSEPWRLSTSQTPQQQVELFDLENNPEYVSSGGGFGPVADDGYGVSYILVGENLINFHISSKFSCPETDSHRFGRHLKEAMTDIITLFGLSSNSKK

Hepatocyte = assay: Stimulation of FAO in hepatocytes at 28 uM; assay type: cell-based
[2] = target: T1, Carnitine O-palmitoyltransferase 1, liver isoform (Homo sapiens); assay: Increase in CPT1 activity in human MCF7 cells assessed as increase in radiolabeled palmitoylcarnitine relative to untreated control; assay type: cell-based
[3] = target: T2, Carnitine O-palmitoyltransferase 1, liver isoform (Homo sapiens, UniProt P50416); assay: Increase in CPT1 activity in human MCF7 cells assessed as increase in radiolabeled palmitoylcarnitine; assay type: cell-based
T2 sequence (P50416 whole entry): T1 sequence (whole entry)

[4] = target: T1, Carnitine O-palmitoyltransferase 1, liver isoform (Homo sapiens); assay: Increase in CPT1 activity in human MCF7 cells assessed as increase in radiolabeled palmitoylcarnitine at 31 uM; assay type: cell-based
Rattus norvegicus [5] = assay: Reduction in KB level in Sprague-Dawley rat at 0.44 mg/kg, po; assay type: functional; design: scale not given: the % may be the effect or the level left
Rattus norvegicus [6] = assay: Reduction in glucose level in Sprague-Dawley rat at 88 mg/kg, po; assay type: functional; design: scale not given: the % may be the effect or the level left
[7] = Inhibition of carnitine palmitoyltransferase in rat heart mitochondria assessed as conversion of [14C]palmitic acid to [14C]palmitoylcarnitine by radiometric assay
[8] = Inhibition of carnitine palmitoyltransferase in rat liver mitochondria assessed as conversion of [14C]palmitic acid to [14C]palmitoylcarnitine by radiometric assay
[9] = Inhibition of carnitine palmitoyltransferase in 18 hr fasted rat hepatocytes; assay type: cell-based; conditions: hepatocyte
[10] = Inhibition of carnitine palmitoyltransferase in 18 hr fasted rat liver homogenates; assay type: tissue-based
[11] = Competitive inhibition of carnitine palmitoyltransferase using palmitoyl-CoA
Rattus norvegicus [12] = assay: Inhibition of ketogenesis in 17 hrs fasted po dosed rat; assay type: functional
Mus musculus [13] = assay: Reduction in glucose level in db/db mouse at 30 mg/kgl/day, po for 12 days; assay type: functional; design: scale not given: the % may be the effect or the level left; conditions: dose 30 mg/kg
Mus musculus [14] = assay: Reduction in body weight in C57BL/6J mouse at 250 pmol/day, icv for 4 days; assay type: functional; design: scale not given: the % may be the effect or the level left
Mus musculus [15] = assay: Reduction in food intake in C57BL/6J mouse at 250 pmol/day, icv for 4 days; assay type: functional; design: scale not given: the % may be the effect or the level left
[16] = Inhibition of rat FAO
[17] = Inhibition of human FAO
[18] = target: T3, Carnitine O-palmitoyltransferase 2, mitochondrial (Homo sapiens, UniProt P23786); assay: Inhibition of human CPT2
T3 sequence (P23786 whole entry): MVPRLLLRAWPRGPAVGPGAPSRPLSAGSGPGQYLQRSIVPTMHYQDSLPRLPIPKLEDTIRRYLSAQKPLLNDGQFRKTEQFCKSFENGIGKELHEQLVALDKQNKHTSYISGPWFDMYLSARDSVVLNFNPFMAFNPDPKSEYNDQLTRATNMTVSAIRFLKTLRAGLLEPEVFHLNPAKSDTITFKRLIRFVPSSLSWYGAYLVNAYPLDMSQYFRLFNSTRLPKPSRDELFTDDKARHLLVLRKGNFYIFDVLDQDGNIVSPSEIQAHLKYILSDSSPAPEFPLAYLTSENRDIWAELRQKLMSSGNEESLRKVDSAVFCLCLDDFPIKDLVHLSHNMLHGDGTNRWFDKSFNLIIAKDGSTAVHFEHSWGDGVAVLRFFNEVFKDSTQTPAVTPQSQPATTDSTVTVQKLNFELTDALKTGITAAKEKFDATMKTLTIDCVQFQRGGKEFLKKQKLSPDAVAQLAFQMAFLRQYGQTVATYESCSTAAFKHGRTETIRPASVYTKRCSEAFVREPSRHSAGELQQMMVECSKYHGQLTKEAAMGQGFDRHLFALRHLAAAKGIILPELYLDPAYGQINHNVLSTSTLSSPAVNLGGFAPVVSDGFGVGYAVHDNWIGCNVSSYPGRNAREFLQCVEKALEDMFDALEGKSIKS

[19] = Critical micelle concentration of compound; assay type: physicochemical
[20] = target: T4, Carnitine O-palmitoyltransferase 1, muscle isoform (Homo sapiens, UniProt Q92523); assay: Inhibition of human CPT1B
T4 sequence (Q92523 whole entry): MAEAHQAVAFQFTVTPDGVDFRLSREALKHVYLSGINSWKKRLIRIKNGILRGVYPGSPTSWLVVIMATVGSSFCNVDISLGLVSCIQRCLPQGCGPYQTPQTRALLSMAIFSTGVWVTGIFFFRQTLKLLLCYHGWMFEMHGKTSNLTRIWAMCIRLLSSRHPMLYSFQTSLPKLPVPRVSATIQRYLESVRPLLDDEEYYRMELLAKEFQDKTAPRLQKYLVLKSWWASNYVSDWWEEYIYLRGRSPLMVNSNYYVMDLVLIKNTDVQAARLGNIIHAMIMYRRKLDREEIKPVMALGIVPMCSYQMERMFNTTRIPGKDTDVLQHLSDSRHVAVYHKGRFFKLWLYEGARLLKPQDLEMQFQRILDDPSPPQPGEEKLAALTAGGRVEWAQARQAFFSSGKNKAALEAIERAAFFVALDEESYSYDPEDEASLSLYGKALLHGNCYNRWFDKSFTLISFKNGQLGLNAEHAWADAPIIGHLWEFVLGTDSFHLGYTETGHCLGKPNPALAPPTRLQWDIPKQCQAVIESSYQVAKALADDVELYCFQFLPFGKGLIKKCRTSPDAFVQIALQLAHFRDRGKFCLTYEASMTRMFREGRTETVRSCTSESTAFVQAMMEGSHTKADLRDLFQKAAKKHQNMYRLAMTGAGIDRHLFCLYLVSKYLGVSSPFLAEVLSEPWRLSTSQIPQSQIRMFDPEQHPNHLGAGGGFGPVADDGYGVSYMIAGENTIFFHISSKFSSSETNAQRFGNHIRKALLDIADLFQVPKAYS

[21] = target: T2, Carnitine O-palmitoyltransferase 1, liver isoform; assay: Inhibition of human CPT1A
Rattus norvegicus [22] = assay: Reduction in KB level po dosed 24 hrs fasted rat measured 6 hrs post dose; assay type: functional
Mus musculus [23] = assay: Reduction in serum glucose level db/db mouse at 100 mg/kg/day for 30 days; assay type: functional; design: scale not given: the % may be the effect or the level left
Sus scrofa = species: Sus scrofa; assay: Increase in glucose metabolic clearance rate in pig using [U14C,3-3H]glucose; assay type: functional
Rattus norvegicus [24] = species: Rattus norvegicus; assay: Inhibition of CPT1A activity in 48 hrs fasted rat; assay type: functional
Rattus norvegicus [25] = species: Rattus norvegicus; assay: Reduction in ketone bodies in 48 hrs fasted rat; assay type: functional; design: scale not given: the % may be the effect or the level left

Which results are given for `C=CCC1(CC=C)C(=O)S[C@](C)(CCCCCCCC)C1=O`?
Activity [1]: 150%; Activity (Hepatocyte): 150%; Activity [2]: 140%; EC50 [3]: 3 µM; Activity [4]: 177%

Which Activity (Rattus norvegicus [5]) does the source give for `CCCCCCCCCCCCCCOP(=O)([O-])O[C@H](CC(=O)O)C[N+](C)(C)C` here?
The Activity was 77%.

What about the Activity (Rattus norvegicus [6]) of the same molecule?
The Activity was 20%.

And the IC50 [7]?
The IC50 was 62 µM.

And the IC50 [8]?
Its IC50 is 17.4 µM.

And the IC50 [9]?
Its IC50 is 3 µM.

And the IC50 [10]?
Its IC50 is 36 µM.

What about the Ki [11] of the same molecule?
The Ki was 3.6 µM.

What does the source list for `CCCCCCOc1cccc(OCCCCNC(=O)N[C@H](CC(=O)[O-])C[N+](C)(C)C)c1`?
ED50 (Rattus norvegicus [12]): 3.7 mg/kg; Activity (Mus musculus [13]): 41%; Activity (Mus musculus [14]): 7%; Activity (Mus musculus [15]): 25%; IC50 [7]: 5.44 µM; IC50 [8]: 0.13 µM; IC50 [16]: 0.03 µM; IC50 [17]: 0.73 µM; IC50 [18]: 5.4 µM; CMC [19]: 0.79 mM; IC50 [20]: 85.3 µM; IC50 [21]: 1.7 µM

Which results are given for `CCCCCCCCCCCCS(=O)(=O)N[C@H](CC(=O)[O-])C[N+](C)(C)C`?
ED50 (Rattus norvegicus [22]): 20 mg/kg; Activity (Mus musculus [23]): 28%; IC50 [7]: 3.4 µM; IC50 [8]: 0.7 µM; Ki [11]: 0.25 µM

Which IC50 [16] does the source give for `CCOC(=O)[C@@]1(CCCCCCOc2ccc(Cl)cc2)CO1` [ETOMOXIR] here?
The IC50 was 0.34 µM.

And the IC50 [17]?
The IC50 was 0.29 µM.

What about the Activity (Sus scrofa) of the same molecule?
The Activity was 126%.

For `CCCCCCCCCCCCCC[C@]1(C(=O)OC)CO1` (racemic), which “inhibition (INH)” value (Rattus norvegicus [24]) is on record?
The value was 90%.

What about the Activity (Rattus norvegicus [25]) of the same molecule?
Its Activity is 90%.
